{"source": "patent US9113629B2", "about": "“4-amino-6-(4-substituted-phenyl)-picolinates and 6-amino-2-(4-substituted-phenyl)-pyrimidine-4-carboxylates and their use as herbicides” (DOW AGROSCIENCES LLC, priority 2013, dated 2015)", "assay_in_all_cases": "Post-emergent Test I herbicidal activity", "type_in_all_cases": "in vivo", "key": {"[1]": {"system": "AMARE: redroot pigwseed (Amaranthus retroflexus)", "conditions": "post-emergence, read-out: Visual Growth Reduction (%), AMARE", "experimental": "(§1) Post-emergent Test I Seeds test species were obtained from commercial suppliers and planted into a 13 cm diameter-round pot containing soil-less media mix (metro-mix 360®, Sun Gro Horticulture). Postemergence treatments were planted 8-12 days prior to application and cultured in a greenhouse equipped with supplemental light sources to provide a 16 h photoperiod at 24-29° C. All pots were surface irrigated.\n(§2) A weighted amount, determined by the highest rate to be tested, of each compound was dissolved in 1.3 mL acetone-DMSO (97:3, v/v) and diluted with 4.1 mL water-isopropanol-crop oil concentrate (78:20:2, v/v/v) containing 0.02% Triton X-155 to obtain concentrated stock solutions. Additional application rates were obtained by serial dilution of the high rate solution into a solution containing appropriate volume of 97:3 v/v mixture of acetone and DMSO and appropriate volume of an aqueous mixture of water, isopropyl alcohol, crop oil concentrate (78:20:2, v/v/v) containing 0.02% Triton X-155.\n(§3) Formulated compounds were applied using a DeVilbiss® compressed air sprayer at 2-4 psi. Following treatment, pots were returned to the greenhouse for the duration of the experiment. All pots were sub-irrigated as need to provide optimum growing conditions. All pots were fertilized one time per week by subirrigating with Peters Peat-Lite Special® fertilizer (20-10-20).\n(§4) […] All evaluations were made visually on a scale of 0 to 100 where 0 represents no activity and 100 represents complete plant death. Visual assessments of plant injury were made based on growth reduction, discoloration, leaf deformity and necrosis."}, "[2]": {"system": "IPOHE: ivyleaf morningglory (Ipomoea hederecea)", "conditions": "post-emergence, 336 h, read-out: Visual Growth Reduction (%) 14 Days After Application, IPOHE", "experimental": "as §1, §2, §3, §4"}, "[3]": {"system": "SETFA: giant foxtail (Setaria faberi)", "conditions": "post-emergence, 336 h, read-out: Visual Growth Reduction (%) 14 Days After Application, SETFA", "experimental": "as §1, §2, §3, §4"}, "[4]": {"system": "ECHCG: barnyardgrass (Echinochloa crus-galli)", "conditions": "post-emergence, 336 h, read-out: Visual Growth Reduction (%) 14 Days After Application, ECHCG", "experimental": "as §1, §2, §3, §4"}, "[5]": {"system": "HELAN: sunflower (Helianthus annuus)", "conditions": "post-emergence, 336 h, read-out: Visual Growth Reduction (%) 14 Days After Application, HELAN", "experimental": "as §1, §2, §3, §4"}, "[6]": {"system": "AVEFA: wild oats (Avena fatua)", "conditions": "post-emergence, 336 h, read-out: Visual Growth Reduction (%) 14 Days After Application, AVEFA", "experimental": "as §1, §2, §3, §4"}}}
{"compound": "Nc1c(F)c(-c2ccc(Br)c(F)c2F)nc(C(=O)O)c1Cl", "note": "[Compound 147]", "values": [{"measurement": "pest or weed control at 3960 g/ha", "setting": "[1]; 3.96 kg ai/ha", "value": "95 to 100", "unit": "%"}, {"measurement": "pest or weed control at 3960 g/ha", "setting": "[2]; 3.96 kg ai/ha", "value": "95 to 100", "unit": "%"}, {"measurement": "pest or weed control at 3960 g/ha", "setting": "[3]; 3.96 kg ai/ha", "value": "95 to 100", "unit": "%"}, {"measurement": "pest or weed control at 3960 g/ha", "setting": "[4]; 3.96 kg ai/ha", "value": "95 to 100", "unit": "%"}, {"measurement": "pest or weed control at 3960 g/ha", "setting": "[5]; 3.96 kg ai/ha", "value": "95 to 100", "unit": "%"}, {"measurement": "pest or weed control at 3960 g/ha", "setting": "[6]; 3.96 kg ai/ha", "value": "75 to 84", "unit": "%"}]}
{"compound": "N#Cc1ccc(-c2nc(C(=O)O)c(Cl)c(N)c2F)cc1F", "note": "[Compound 156]", "values": [{"measurement": "pest or weed control at 4040 g/ha", "setting": "[1]; 4.04 kg ai/ha", "value": "95 to 100", "unit": "%"}, {"measurement": "pest or weed control at 4040 g/ha", "setting": "[2]; 4.04 kg ai/ha", "value": "95 to 100", "unit": "%"}, {"measurement": "pest or weed control at 4040 g/ha", "setting": "[3]; 4.04 kg ai/ha", "value": "85 to 94", "unit": "%"}, {"measurement": "pest or weed control at 4040 g/ha", "setting": "[4]; 4.04 kg ai/ha", "value": "95 to 100", "unit": "%"}, {"measurement": "pest or weed control at 4040 g/ha", "setting": "[5]; 4.04 kg ai/ha", "value": "95 to 100", "unit": "%"}, {"measurement": "pest or weed control at 4040 g/ha", "setting": "[6]; 4.04 kg ai/ha", "value": "75 to 84", "unit": "%"}]}
{"compound": "COC(=O)c1nc(-c2ccccc2)c(F)c(N)c1Cl", "note": "[Compound 181]", "values": [{"measurement": "pest or weed control at 1760 g/ha", "setting": "[1]; 1.76 kg ai/ha", "value": "95 to 100", "unit": "%"}, {"measurement": "pest or weed control at 1760 g/ha", "setting": "[2]; 1.76 kg ai/ha", "value": "75 to 84", "unit": "%"}, {"measurement": "pest or weed control at 1760 g/ha", "setting": "[3]; 1.76 kg ai/ha", "value": "0 to 29", "unit": "%"}, {"measurement": "pest or weed control at 1760 g/ha", "setting": "[4]; 1.76 kg ai/ha", "value": "0 to 29", "unit": "%"}, {"measurement": "pest or weed control at 1760 g/ha", "setting": "[5]; 1.76 kg ai/ha", "value": "95 to 100", "unit": "%"}, {"measurement": "pest or weed control at 1760 g/ha", "setting": "[6]; 1.76 kg ai/ha", "value": "0 to 29", "unit": "%"}]}
{"compound": "COC(=O)c1nc(-c2ccc(C(F)F)c(F)c2)cc(N)c1Cl", "note": "[Compound 196]", "values": [{"measurement": "pest or weed control at 3840 g/ha", "setting": "[1]; 3.84 kg ai/ha", "value": "95 to 100", "unit": "%"}, {"measurement": "pest or weed control at 3840 g/ha", "setting": "[2]; 3.84 kg ai/ha", "value": "85 to 94", "unit": "%"}, {"measurement": "pest or weed control at 3840 g/ha", "setting": "[3]; 3.84 kg ai/ha", "value": "95 to 100", "unit": "%"}, {"measurement": "pest or weed control at 3840 g/ha", "setting": "[4]; 3.84 kg ai/ha", "value": "95 to 100", "unit": "%"}, {"measurement": "pest or weed control at 3840 g/ha", "setting": "[5]; 3.84 kg ai/ha", "value": "95 to 100", "unit": "%"}, {"measurement": "pest or weed control at 3840 g/ha", "setting": "[6]; 3.84 kg ai/ha", "value": "60 to 74", "unit": "%"}]}
{"compound": "COC(=O)c1nc(-c2ccc(C(F)F)cc2)c(F)c(N)c1Cl", "note": "[Compound 209]", "values": [{"measurement": "pest or weed control at 4000 g/ha", "setting": "[1]; 4 kg ai/ha", "value": "95 to 100", "unit": "%"}, {"measurement": "pest or weed control at 4000 g/ha", "setting": "[2]; 4 kg ai/ha", "value": "85 to 94", "unit": "%"}, {"measurement": "pest or weed control at 4000 g/ha", "setting": "[3]; 4 kg ai/ha", "value": "95 to 100", "unit": "%"}, {"measurement": "pest or weed control at 4000 g/ha", "setting": "[4]; 4 kg ai/ha", "value": "95 to 100", "unit": "%"}, {"measurement": "pest or weed control at 4000 g/ha", "setting": "[5]; 4 kg ai/ha", "value": "95 to 100", "unit": "%"}, {"measurement": "pest or weed control at 4000 g/ha", "setting": "[6]; 4 kg ai/ha", "value": "85 to 94", "unit": "%"}]}
